Source: patent US12071488B2, “Method of sensitizing cancer cells to anti-cancer treatment” (TWO TO BIOTECH LTD., priority 2017, dated 2024)

Key:
HER2 = assay: Immunofluorescence of HER2 in MDA-MB-231 cells; assay type: cell-based, human
Description: Cells (MDA-MB-231, MDA-MB-468 and BTS-149) were grown until 70-80% density was reached. Then the growth medium was discarded and the cells were treated with trypsin and medium as described above. After the cells were detached from the surface, the 20 ml cell suspension (namely cells in medium and Trypsin) were transferred into 50 ml conical tubes and centrifuged at 300 g for 10 min in 4° C. Next, the supernatant was discarded and 2 ml fresh medium were added to the cell pellet. Then the cells were fluidized and 13 ml medium was added to the tubes, thereby suspending the cells in a total of 15 ml medium. The cells were counted and seeded at 10.000-15,000 cells/well on chamber slide in 1 ml growing medium. The chamber slide seeded with cells was placed in the hood for 1 hour and then transferred to the incubator for an overnight incubation under the above conditions. The following day the medium was aspirated from the cell chamber slides and discarded and 1 ml cell treatment medium supplemented with APC1 (at a final concentration of 100 or 250 μg/ml) or control (medium only). Medium was added to each one of the wells (aliquots of APC1 were used in order to avoid repeated freeze-thaw cycle). The cells were then incubated for 24-144 hours. […]

Notch3 receptor = assay: Western blot analysis of Notch3 receptor in membrane fraction of MDA-MB-231 cells; assay type: cell-based, human
Description: MDA-MB-231 cells (0.8×10^6) were seeded on five 75 cm^2 flasks in 25 ml DMEM (41965039 Gibco) medium comprising 10% fetal bovine serum (FBS), Gentamycin Sulfate (03-035-1C Biological industries) and Amphotericin B (03-029-1C Biological industries). Cells were incubated overnight in an incubator. […]
Media was then removed and the cells were scrapped off the flask by a cell scraper into 1.8 ml fresh DMEM media. Cells were collected into 2 ml Eppendorf tubes in two fractions: cytosolic proteins and membrane proteins that were extracted by Membrane Protein Extraction Kit (Thermo scientific #89842). Protease inhibitors (Sigma p2714) and phosphatase inhibitors (Sigma P5726) were added to the Permeabilization and Solubilization Buffers, as recommended by the manufacturer.
Samples were prepared for western blotting as follows: sample buffer (invitrogen cat #NP0007, 4-fold concentrated) and sample reducing agent (Invitrogen cat #NP0009, 10-fold concentrated) were added to each sample and the samples were boiled for 5 minutes. […]
The membrane was washed 3 times using TBST, and the secondary antibody αRabbit-HRP was then added (dilution 1:5000 in 5% milk in TBST) for an incubation of 1 hour at room temperature, with agitation. […] Notch 3 antibody was applied to the membrane and the quantitation of the protein was preformed and calibrated with beta-actin protein.

[1] = test system: human ovarian cancer cells (OV90); assay: Relative tumor volume in nude mice inoculated with human ovarian cancer cells; assay type: in vivo; details: OV90 tumors
Description: During the treatment period, each mouse was weighted, and the tumor size was measured by Digital caliper.
When the tumors exceeded a volume of 40 mm^3 or 50 mm^3 (for OV90 and Panc1, respectively), the mice were randomly divided into four groups of 8 mice each, as follows. A control group was treated with saline only, the APC1-treated group was treated three times a week with doses of APC1 at 15 mg/kg each, the doxorubicin and APC treated group was treated twice a week with doses of APC1 (at 15 mg/kg each) and once a week with doxorubicin (at 3 mg/kg) and the doxorubicin-treated group was treated with doxorubicin only, once a week at a dose of 3 mg/kg. These dosing protocols were repeated throughout the experiment, namely for 5 weeks.

[2] = test system: ovarian cancer cells OV90 and OV3; assay: Glutathione level in ovarian cancer cells treated with APC1; assay type: cell-based, human; details: ovarian cancer cells (FIG. 18A)
Description: Gluthatione Assay Kit (Sigma CS0260);
Cell lines (MDA-MB-231, MDA-MB-468) were grown in 75 cm^2 cell culture flask, reached 80-90% confluence. The cells were treated with APC1 (250 μg/ml, 2 times per week for 1 week).
Cells were washed twice with 10 ml PBS, PBS (5 ml) was added and the cells were collected by scrapping, centrifuged at 300G, 4° C. for 5 minutes, the supernatant was then discarded and the cells were treated with APC1 as indicated above. The values of the Glutathione Standard Solutions were used to determine the standard curve and the delta A412/min equivalent to 1 nmole of reduced glutathione per well was calculated according to manufacturer's instructions.
As detailed above, the ovarian cancer cells OV90 and OV3, the pancreatic cancer cells BxPC3 and Panel and the TNBC cancer cells MDA-MB-231 and MDA-MB-468 were treated with APC1 and then the relative glutathione levels in these cells was measured as detailed above.

“EKGAAFSPIYPRRK (C terminal peptide of KTPAF50) [APC1, polypeptide consisting of the 14 C-terminal amino acid residues of the peptide KTPAF50]” was tested, and the “HER2 expression by immunofluorescence” value (HER2; single dose 250 μg/ml APC1, 48 hours, vs control cells) was “clear HER2 expression”, the “HER2 expression by immunofluorescence, multiple doses” value (HER2; three doses of 250 μg/ml APC1, 144, 96 and 72 hours, vs single dose) was “enhanced” and the “incubation period with highest Notch3 expression” value (Notch3 receptor; APC1 250 μg/ml, 1, 3, 5 or 24 hours) was “highest for incubations periods of 3 and 5 hours”. For the same sequence, the “expression of active Notch3 receptor on the cell membrane” value (Notch3 receptor; APC1 250 μg/ml, membrane protein fraction) was “increase”, the “effect on tumor volume compared with doxorubicin-treated group” value ([1]; APC1 15 mg/kg three times a week) was “more pronounced” and the relative tumor volume ([1]; APC1 15 mg/kg, doxorubicin 3 mg/kg once a week, 5 weeks, control increased linearly) was “modest increases”. The level of glutathione [2] was “decreased”.
